Where no end group is shown, it is not given here.
What was measured:
[1] = Solubility tests; type: physicochemical
Method: Given the low incorporation of 10% C19-A3 peptide into GNPs (3-5%) using the 75% methanol-based preparation method, solubility tests were performed to determine the optimal solution for C19-A3 peptide conjugation to gold nanoparticles. […] Therefore, water-based GNP synthesis methods were developed using low (10%) or intermediate (35%) levels of methanol, and vivaspin centrifugation to remove any unbound peptide. GNPs containing 10% C19-A3 peptide and 10% glucose C2 (NP58) or 10% mannose C2 (NP61) were synthesised using a water-based (10% methanol) method (Table 12). HPLC analysis of peptide released from the C19-A3-GNPs following treatment with KCN solution (100 mM), confirmed 100% and 62% incorporation efficiency of C19-A3 peptide, with 31 and 19 peptides bound per GNP, for NP58 and NP61, respectively. An intermediate 35% methanol preparation method was also tested for synthesis of 10% C19-A3, 10% glucose C2 GNPs (NP63). HPLC analysis again confirmed high incorporation of C19-A3 peptide (67%), with 20 peptides bound per GNP.

[2] = system: OT-II (ovalbumin peptide (323-339) specific) CD4+ T cells; test: OT-II T cell proliferation in draining LN after intradermal injection; type: in vivo, C57BL/6 mice; conditions: 3 days later, flow cytometry
Method: PBS, ovalbumin peptide (323-339) or ovalbumin peptide (323-339) containing GNPs (NP167, NP168) were injected intradermally in C57BL/6 mice 24 h after i.v. administration of fluorescent cell trace violet (CTV)-labelled OT-II (ovalbumin peptide (323-339) specific) CD4+ T cells. 3 days later, draining LN cells were isolated and studied by flow cytometry. The presence of OT-II cells in the LN was shown by the appearance of cells of that are […] CD45.1^+Vα2^+ and high CTV fluorescence (right hand edge of square). Proliferation of OT-II cells was seen as dilution of the CTV fluorescence, bringing the cells progressively at each cell cycle into the blue box. The percentage of cells with the proliferation square is shown. […] Each plot represents the results from a different mouse.
PBS, ovalbumin peptide (323-339), or ovalbumin peptide (323-339) coupled GNPs (NP167, NP168) were administered intradermally to C57BL-6 mice, at the same time as i.v. administration of fluorescent cell trace violet (CTV) labelled OT-II (Ovalbumin peptide specific) CD4 positive T cells. Draining LN and spleen cells were harvested 3 days after ovalbumin (323-339) peptide administration, and studied by flow cytometry. Where fluorescent cells are seen but the level of fluorescence has been reduced, this implies that they have recognised their target peptide on APCs in that tissue and undergone cell division.

[3] = system: BDC-2.5 CD4+ T cells; test: BDC-2.5 CD4+ T cell proliferation in LNs and spleen after injection; type: in vivo, murine
Excerpt: Increased proliferation is seen with GNPs coupled to antigen both in the draining and distant LN sites and spleen.
A similar in vivo protocol was designed, using fluorescently labelled indicator CD4^+ T cells (BDC-2.5, specific for chromograninA 342-355 found in pancreatic beta cells) and the peptide “BDC-2.5 mimotope” (a peptide of similar configuration to this epitope, that mimics the chromogranin A 342-355 peptide) coupled to GNPs linked to either mannose C2 or glucose C2.
A preliminary in vivo experiment was carried out using the murine BDC-2.5 mimotope peptide and fluorescently-labelled indicator CD4 T cell clones specific for this peptide described above. GNPs were given coupled to peptide (BDC-2.5 mimotope), IL-10, or both, and compared to blank GNPs of injected controls. […] This provides evidence that the cytokine travels with the GNPs to distant sites when complexed with GNPs, and in bioactive form. This is of enhanced efficiency compared to IL-10 alone.

[4] = system: OT-II (ovalbumin peptide (323-339) specific) CD4+ T cells; test: Accumulation of fluorescent cells in LN of CCR7−/− mice; type: in vivo; conditions: CCR7−/− compared to wildtype B6 mice
Method: In order to determine whether the injected peptide is carried to draining LNs in fluid phase or carried via migratory skin DCs, homozygous knockout mice for the chemokine receptor CCR7 (which mediates DC migration from skin) were treated in the same protocol as above.

[5] = system: Human immature monocyte derived dendritic cells (iDCs); test: Cytokine release by DCs after LPS (Luminex); type: cell-based
Method: iDCs were also incubated with proinsulin C19-A3 GNPs coupled to glucose (GNPgluc), with proinsulin C19-A3 GNPs coupled to mannose (GNPman), or without GNPs for 4 hrs. Thereafter, cells were washed and subsequently stimulated with 100 ng/ml LPS and left overnight. Supernatants were collected the next day and cytokine (IL-10, IL-12 and TNF) release by DCs measured using Luminex.
(§1) However, IL-10-GNPs changed the ability of DCs to upregulate HLA-DR and activation molecules CD80 and CD25 upon stimulation with LPS.

[6] = system: Human immature monocyte derived dendritic cells (iDCs); test: DC maturation (CD80, HLA-DR expression, FACS); type: cell-based; conditions: subsequent stimulation with LPS
Method: Human immature monocyte derived dendritic cells (iDCs) were incubated with proinsulin C19-A3 coupled GNPs or without GNPs for 4 h. Thereafter, the GNPs were washed off and cells left overnight, either alone or in the presence of 100 ng/ml LPS. Overnight maturation of DCs was measured as increases of CD80 and HLA-DR expression using FACS.
as §1

Molecule: GSLQPLALEGSLQKRGIV [C19-A3 peptide, GSLQPLALEGSLQKRGIV]
- solubility in water [1]: highly soluble

Molecule: ISQAVHAAHAEINEAGR [ovalbumin peptide, Ovalbumin 323-339 peptide, reference compound]
- OT-II cell accumulation and proliferation in draining LN [2]: low levels

Molecule: YVRPLWVRME [BDC-2.5 mimotope peptide, peptide that mimics the chromogranin A 342-355 peptide, reference compound]
- accumulation of proliferating indicator cells in draining LN, distant LNs and spleen ([3]; 3 days after injection): modest accumulation of proliferating indicator cells

Molecule: ovalbumin (323-339) GNPs: ovalbumin (323-339) peptide GNPs
- fluorescent cells accumulated in the LN [4]: reduced numbers of fluorescent cells

B1: soluble IL-10: Human recombinant IL-10, not bound to nanoparticles (protein, UniProt P22301 19-178, looked up)
Interleukin-10: SPGQGTQSENSCTHFPGNLPNMLRDLRDAFSRVKTFFQMKDQLDNLLLKESLLEDFKGYLGCQALSEMIQFYLEEVMPQAENQDPDIKAHVNSLGENLKTLRLRLRRCHRFLPCENKSKAVEQVKNAFNKLQEKGIYKAMSEFDIFINYIEAYMTMKIRN
- pro-inflammatory cytokine production (IL-12 and TNF) ([5]; LPS-treated DCs): reduced pro-inflammatory cytokine production
- release of IL-10 in the culture ([5]; final IL-10 concentration 100 pg/ml): significantly higher release of IL-10
- maturation of DCs upon LPS (phenotype) [6]: immature phenotype
- effect of IL-10 on proliferation of indicator T cells ([3]; preliminary in vivo experiment, IL-10 at the same concentration): no effect of proliferation

Source: patent publication US20180177891A1, “Nanoparticle-Based Antigen Specific Immunotherapy” (Midatech Limited, priority 2015, published 2018)
